# Reference: patent EP3125690B1, “HERBICIDAL MIXTURE OF CAROTENOID BIOSYNTHESIS INHIBITING COMPOUND AND AN AHAS/ALS INHIBITING COMPOUND AND USES THEREOF” (Adama Agan Ltd., priority 2014, dated 2015)
# Key:
# Type in all cases: in vivo
# [1] = test system: Ambrosia artemisiifolia; test: Herbicide efficacy trial in sunflower crop, Example 1 (0 to 100 scale); conditions: avg, n 2
# Excerpt: (§1) Four herbicide treatments were compared: • a) Imazamox 20 g/l + Aclonifen 300 g/l SC formulation (Application Rate of 2.0 l/ha) • b) Imazamox 40 g/l SC + Aclonifen 600 g/l SC tank-mix (Application Rate of 1.0 l/ha + 1.0 l/ha) • c) Imazamox 40 g/l SL formulation (commercially available as Pulsar) (Application Rate of 1.0 1/ha) • d) Aclonifen 600 g/l SC formulation (Application Rate of 1.0 l/ha)
# (§2) The above treatments were applied to a variety of weeds. The results are based on a 0 to 100 scale where 0 is no effect and 100 is complete control. Table 2 compares the individual applications aclonifen and imazamox with the tank-mix of the two active ingredients as well as the ready-mix formulation of aclonifen and imazamox.
# (§3) The trial detailed in Tables 1-4 were conducted on Sunflower crop in France, Hungary and Romania.
# [2] = test system: Chenopodium album; test: as above; conditions: avg, n 6
# Excerpt: as §1, §2, §3
# [3] = test system: Abutilon theophrasti; test: as above; conditions: avg, n 1
# Excerpt: as §1, §2, §3
# [4] = test system: Amaranthus retroflexus; test: as above; conditions: avg, n 2
# Excerpt: as §1, §2, §3
# [5] = test system: Conyza Canadensis; test: as above; conditions: avg, n 1
# Excerpt: as §1, §2, §3
# [6] = test system: Setaria pumila; test: as above; conditions: avg, n 1
# Excerpt: as §1, §2, §3
# [7] = test system: Fallopia convolvulus; test: as above; conditions: avg, n 1
# Excerpt: as §1, §2, §3
# [8] = test system: Persicaria lapathifolia; test: as above; conditions: avg, n 1
# Excerpt: as §1, §2, §3
# [9] = test system: Digitaria sanguinalis; test: as above; conditions: avg, n 1
# Excerpt: as §1, §2, §3
# [10] = test system: Calystegia sepium; test: as above; conditions: avg, n 1
# Excerpt: as §1, §2, §3
# [11] = test system: Sonchus arvensis; test: as above; conditions: avg, n 1
# Excerpt: as §1, §2, §3
# [12] = test system: Mercurialis annua; test: as above; conditions: avg, n 2
# Excerpt: as §1, §2, §3
# [13] = test system: Echinochloa crus-galli; test: as above; conditions: avg, n 3
# Excerpt: as §1, §2, §3
# [14] = test system: Hibiscus trionum; test: as above; conditions: avg, n 2
# Excerpt: as §1, §2, §3
# [15] = test system: Persicaria lapathifolia; test: Herbicide efficacy trial with Colby calculation, Example 3; conditions: application rate 1000 (ml or gr); for % control observed 13 DAA: 13 days after application; for % control observed 38 DAA: 38 days after application; for % control observed 76 DAA: 76 days after application
# Excerpt: (§4) In the context of the present subject matter, the term "synergy" is as defined by Colby S. R. in an article entitled "Calculation of the synergistic and antagonistic responses of herbicide combinations" published in the journal Weeds, 1967, 15, p. 20-22, incorporated herein by reference in its entirety. The action expected for a given combination of three active ingredients can be calculated as follows: E = X + Y−(XY)/(100) [formula] in which E represents the expected percentage of herbicidal control for the combination of the three herbicides at defined doses (for example equal to x, y and z respectively), X is the percentage of herbicidal control observed by aclonifen at a defined dose (equal to x), Y is the percentage of herbicidal control observed by imazamox at a defined dose (equal to y). When the percentage of herbicidal control observed for the combination is greater than the expected percentage, there is a synergistic effect. When the percentage of control observed for the combination is equal to the expected percentage, there is an additive effect and wherein the percentage of herbicidal control observed for the combination is lower than the expected percentage, there is an antagonistic effect.
# as §1, with “l/ha)” for “1/ha)”
# as §2, with “5” for “2”
# [16] = test system: Solanum Nigrum; test: Herbicide efficacy trial with Colby calculation, Example 2; conditions: application rate 1000 (ml or gr)
# Excerpt: as §4
# (§5) Three herbicide treatments were compared: • a) Imazamox 40 g/l SC + Aclonifen 600 g/l SC tank-mix (Application Rate of 1.0 l/ha + 1.0 l/ha) • b) Imazamox 40 g/l SL formulation (commercially available as Pulsar) (Application Rate of 1.0 l/ha) • c) Aclonifen 600 g/l SC formulation (Application Rate of 1.0 l/ha)
# (§6) The above treatments were applied to a variety of weeds. The results are based on a 0 to 100 scale where 0 is no effect and 100 is complete control. Table 3-4 compares the individual applications of aclonifen and imazamox with the tank of the two active ingredients.
# as §3
# [17] = test system: Setaria pumila; test: as above; conditions: application rate 1000 (ml or gr); for % control observed 41 DAA: 41 days after application; for % control observed 62 DAA: 62 days after application; for % control observed 107 DAA: 107 days after application
# Excerpt: as §4, §5, §6, §3
# [18] = test system: Persicaria lapathifolia; test: as above; conditions: application rate 1000 (ml or gr)
# Excerpt: as §4, §5, §6, §3
compound,measurement,setting,value
"Nc1c([N+](=O)[O-])ccc(Oc2ccccc2)c1Cl [Aclonifen SC, 2-Chlor-6-nitro-3-phenoxyanilin]",Efficacy (% Control),"[1]; 600 g ai/ha, 1,00 l/ha",78.9%
same,Efficacy (% Control),"[2]; 600 g ai/ha, 1,00 l/ha",85.1%
same,Efficacy (% Control),"[3]; 600 g ai/ha, 1,00 l/ha",50.0%
same,Efficacy (% Control),"[4]; 600 g ai/ha, 1,00 l/ha",72.0%
same,Efficacy (% Control),"[5]; 600 g ai/ha, 1,00 l/ha",25.0%
same,Efficacy (% Control),"[6]; 600 g ai/ha, 1,00 l/ha",20.0%
same,Efficacy (% Control),"[7]; 600 g ai/ha, 1,00 l/ha",91.0%
same,Efficacy (% Control),"[8]; 600 g ai/ha, 1,00 l/ha",38.3%
same,Efficacy (% Control),"[9]; 600 g ai/ha, 1,00 l/ha",62.5%
same,Efficacy (% Control),"[10]; 600 g ai/ha, 1,00 l/ha",66.8%
same,Efficacy (% Control),"[11]; 600 g ai/ha, 1,00 l/ha",84.7%
same,Efficacy (% Control),"[12]; 600 g ai/ha, 1,00 l/ha",74.7%
same,Efficacy (% Control),"[13]; 600 g ai/ha, 1,00 l/ha",78.1%
same,Efficacy (% Control),"[14]; 600 g ai/ha, 1,00 l/ha",81.3%
same,% control observed 13 DAA,[15]; 600 g/ha,71.02%
same,% control observed 38 DAA,[15]; 600 g/ha,44.14%
same,% control observed 76 DAA,[15]; 600 g/ha,38.25%
same,% control observed,[16]; 600 g/ha,33.33%
same,% control observed,[17]; 600 g/ha,20%
same,% control observed 41 DAA,[17]; 600 g/ha,11.00%
same,% control observed 62 DAA,[17]; 600 g/ha,20.00%
same,% control observed 107 DAA,[17]; 600 g/ha,20.00%
same,% control observed,[18]; 600 g/ha,38.30%
"COCc1cnc(C2=NC(C)(C(C)C)C(=O)N2)c(C(=O)O)c1 (racemic) [Imazamox SL, 2-[(RS)-4-isopropyl-4-methyl-5-oxo-2-imidazolin-2-yl]-5-methoxymethylnicotinic acid]",Efficacy (% Control),"[1]; 40 g ai/ha, 1,00 l/ha",88.4%
same,Efficacy (% Control),"[2]; 40 g ai/ha, 1,00 l/ha",91.0%
same,Efficacy (% Control),"[3]; 40 g ai/ha, 1,00 l/ha",90.5%
same,Efficacy (% Control),"[4]; 40 g ai/ha, 1,00 l/ha",93.3%
same,Efficacy (% Control),"[5]; 40 g ai/ha, 1,00 l/ha",37.5%
same,Efficacy (% Control),"[6]; 40 g ai/ha, 1,00 l/ha",81.0%
same,Efficacy (% Control),"[7]; 40 g ai/ha, 1,00 l/ha",92.8%
same,Efficacy (% Control),"[8]; 40 g ai/ha, 1,00 l/ha",67.9%
same,Efficacy (% Control),"[9]; 40 g ai/ha, 1,00 l/ha",75.0%
same,Efficacy (% Control),"[10]; 40 g ai/ha, 1,00 l/ha",80.5%
same,Efficacy (% Control),"[11]; 40 g ai/ha, 1,00 l/ha",84.6%
same,Efficacy (% Control),"[12]; 40 g ai/ha, 1,00 l/ha",69.0%
same,Efficacy (% Control),"[13]; 40 g ai/ha, 1,00 l/ha",85.1%
same,Efficacy (% Control),"[14]; 40 g ai/ha, 1,00 l/ha",58.1%
same,% control observed 13 DAA,[15]; 40 g/ha,79.47%
same,% control observed 38 DAA,[15]; 40 g/ha,58.11%
same,% control observed 76 DAA,[15]; 40 g/ha,55.50%
same,% control observed,[16]; 40 g/ha,79.45%
same,% control observed,[17]; 40 g/ha,81%
same,% control observed 41 DAA,[17]; 40 g/ha,20.00%
same,% control observed 62 DAA,[17]; 40 g/ha,90.00%
same,% control observed 107 DAA,[17]; 40 g/ha,81.00%
same,% control observed,[18]; 40 g/ha,67.90%
